Measured values from the NIST ThermoML archive (doi:10.1016/j.jct.2009.06.011).
± gives the expanded uncertainty stated by the source.

Experiment: activity coefficient (dimensionless); of the first substance listed, at infinite dilution; xn = mol fraction of the nth substance listed
Conditions: 101 kPa, Liquid, Chromatography, x1 = 0

Row | Structure (SMILES) | activity coefficient (318.15 K) | activity coefficient (328.15 K) | activity coefficient (338.15 K) | activity coefficient (348.15 K) | activity coefficient (358.15 K) | activity coefficient (368.15 K) | activity coefficient (298.15 K) | activity coefficient (308.15 K)
1 | Cc1ccc(C)cc1 [1,4-dimethylbenzene] + CCCC[n+]1ccc(C)cc1.O=S(=O)([N-]S(=O)(=O)C(F)(F)F)C(F)(F)F | 1.35 ± 0.09 | 1.38 ± 0.09 | 1.42 ± 0.09 | 1.45 ± 0.1 | 1.48 ± 0.1 | 1.51 ± 0.1 |  | 
2 | CCCOCCC [dipropyl ether] + CCCC[n+]1ccc(C)cc1.O=S(=O)([N-]S(=O)(=O)C(F)(F)F)C(F)(F)F | 4.71 ± 0.32 | 4.62 ± 0.31 | 4.54 ± 0.31 | 4.45 ± 0.3 | 4.38 ± 0.3 | 4.31 ± 0.29 | 4.91 ± 0.33 | 4.81 ± 0.33
3 | Cc1ccccc1 [toluene] + CCCC[n+]1ccc(C)cc1.O=S(=O)([N-]S(=O)(=O)C(F)(F)F)C(F)(F)F | 0.973 ± 0.061 | 1 ± 0.063 | 1.02 ± 0.064 | 1.05 ± 0.066 | 1.07 ± 0.067 | 1.09 ± 0.069 |  | 
4 | CCCCCCC [heptane] + CCCC[n+]1ccc(C)cc1.O=S(=O)([N-]S(=O)(=O)C(F)(F)F)C(F)(F)F | 17.7 ± 1.2 | 16.6 ± 1.1 | 15.6 ± 1.1 | 14.7 ± 1 | 13.9 ± 1 | 13.2 ± 0.9 | 20.4 ± 1.4 | 18.9 ± 1.3
5 | Cc1ccccc1C [1,2-dimethylbenzene] + CCCC[n+]1ccc(C)cc1.O=S(=O)([N-]S(=O)(=O)C(F)(F)F)C(F)(F)F | 1.21 ± 0.08 | 1.24 ± 0.08 | 1.27 ± 0.08 | 1.3 ± 0.08 | 1.32 ± 0.09 | 1.35 ± 0.09 |  | 
6 | C#CCCCCC [1-heptyne] + CCCC[n+]1ccc(C)cc1.O=S(=O)([N-]S(=O)(=O)C(F)(F)F)C(F)(F)F | 3.24 ± 0.22 | 3.26 ± 0.22 | 3.27 ± 0.22 | 3.28 ± 0.22 | 3.29 ± 0.22 | 3.3 ± 0.22 | 3.2 ± 0.22 | 3.23 ± 0.22
7 | CCCCCCCC [octane] + CCCC[n+]1ccc(C)cc1.O=S(=O)([N-]S(=O)(=O)C(F)(F)F)C(F)(F)F | 23.7 ± 1.6 | 22.1 ± 1.5 | 20.7 ± 1.4 | 19.3 ± 1.3 | 18.1 ± 1.2 | 17.2 ± 1.2 | 27.9 ± 1.9 | 25.8 ± 1.8
8 | c1ccsc1 [thiophene] + CCCC[n+]1ccc(C)cc1.O=S(=O)([N-]S(=O)(=O)C(F)(F)F)C(F)(F)F | 0.637 ± 0.044 | 0.649 ± 0.044 | 0.661 ± 0.045 | 0.672 ± 0.046 | 0.683 ± 0.046 | 0.694 ± 0.047 | 0.609 ± 0.043 | 0.624 ± 0.043
9 | CCCO [propan-1-ol] + CCCC[n+]1ccc(C)cc1.O=S(=O)([N-]S(=O)(=O)C(F)(F)F)C(F)(F)F | 1.84 ± 0.12 | 1.67 ± 0.11 | 1.53 ± 0.1 | 1.41 ± 0.09 | 1.3 ± 0.08 | 1.2 ± 0.08 | 2.28 ± 0.16 | 2.04 ± 0.14
10 | CCO [ethanol] + CCCC[n+]1ccc(C)cc1.O=S(=O)([N-]S(=O)(=O)C(F)(F)F)C(F)(F)F | 1.56 ± 0.1 | 1.43 ± 0.09 | 1.31 ± 0.09 | 1.21 ± 0.08 | 1.12 ± 0.07 | 1.04 ± 0.07 | 1.91 ± 0.13 | 1.72 ± 0.12
11 | C=CCCCCC [1-heptene] + CCCC[n+]1ccc(C)cc1.O=S(=O)([N-]S(=O)(=O)C(F)(F)F)C(F)(F)F | 9.17 ± 0.63 | 8.82 ± 0.6 | 8.51 ± 0.58 | 8.24 ± 0.56 | 7.99 ± 0.54 | 7.76 ± 0.53 | 9.97 ± 0.68 | 9.56 ± 0.65
12 | CCCCCCCCC [nonane] + CCCC[n+]1ccc(C)cc1.O=S(=O)([N-]S(=O)(=O)C(F)(F)F)C(F)(F)F | 32.3 ± 2.2 | 29.8 ± 2 | 27.6 ± 1.9 | 25.6 ± 1.8 | 23.8 ± 1.6 | 22 ± 1.5 | 38.9 ± 2.7 | 35.5 ± 2.4
13 | CCc1ccccc1 [ethylbenzene] + CCCC[n+]1ccc(C)cc1.O=S(=O)([N-]S(=O)(=O)C(F)(F)F)C(F)(F)F | 1.45 ± 0.1 | 1.48 ± 0.1 | 1.5 ± 0.1 | 1.52 ± 0.1 | 1.54 ± 0.1 | 1.56 ± 0.1 |  | 
14 | CCCCCC [hexane] + CCCC[n+]1ccc(C)cc1.O=S(=O)([N-]S(=O)(=O)C(F)(F)F)C(F)(F)F | 13.5 ± 0.9 | 12.7 ± 0.9 | 12 ± 0.8 | 11.4 ± 0.8 | 10.8 ± 0.7 | 10.3 ± 0.7 | 15.4 ± 1.1 | 14.5 ± 1
15 | CCCCC [pentane] + CCCC[n+]1ccc(C)cc1.O=S(=O)([N-]S(=O)(=O)C(F)(F)F)C(F)(F)F | 11.2 ± 0.8 | 10.5 ± 0.7 | 9.89 ± 0.67 | 9.37 ± 0.64 | 8.88 ± 0.61 | 8.47 ± 0.58 | 12.9 ± 0.9 | 12 ± 0.8
16 | C#CCCC [1-pentyne] + CCCC[n+]1ccc(C)cc1.O=S(=O)([N-]S(=O)(=O)C(F)(F)F)C(F)(F)F | 1.84 ± 0.12 | 1.87 ± 0.13 | 1.89 ± 0.13 | 1.91 ± 0.13 | 1.93 ± 0.13 | 1.95 ± 0.13 | 1.79 ± 0.12 | 1.82 ± 0.12
17 | CO [methanol] + CCCC[n+]1ccc(C)cc1.O=S(=O)([N-]S(=O)(=O)C(F)(F)F)C(F)(F)F | 1.27 ± 0.08 | 1.17 ± 0.07 | 1.08 ± 0.07 | 1 ± 0.06 | 0.935 ± 0.059 | 0.876 ± 0.056 | 1.53 ± 0.1 | 1.39 ± 0.09
18 | CC(C)=O [acetone] + CCCC[n+]1ccc(C)cc1.O=S(=O)([N-]S(=O)(=O)C(F)(F)F)C(F)(F)F | 0.415 ± 0.035 | 0.423 ± 0.035 | 0.43 ± 0.035 | 0.438 ± 0.035 | 0.445 ± 0.036 | 0.451 ± 0.036 | 0.398 ± 0.034 | 0.406 ± 0.034
19 | CCOCC [diethyl ether] + CCCC[n+]1ccc(C)cc1.O=S(=O)([N-]S(=O)(=O)C(F)(F)F)C(F)(F)F | 2.08 ± 0.14 | 2.08 ± 0.14 | 2.08 ± 0.14 | 2.09 ± 0.14 | 2.09 ± 0.14 | 2.09 ± 0.14 | 2.07 ± 0.14 | 2.08 ± 0.14
20 | C#CCCCC [1-hexyne] + CCCC[n+]1ccc(C)cc1.O=S(=O)([N-]S(=O)(=O)C(F)(F)F)C(F)(F)F | 2.42 ± 0.16 | 2.44 ± 0.17 | 2.46 ± 0.17 | 2.48 ± 0.17 | 2.5 ± 0.17 | 2.52 ± 0.17 | 2.37 ± 0.16 | 2.39 ± 0.16
21 | O [water] + CCCC[n+]1ccc(C)cc1.O=S(=O)([N-]S(=O)(=O)C(F)(F)F)C(F)(F)F | 3.65 ± 0.25 | 3.21 ± 0.22 | 2.85 ± 0.19 | 2.54 ± 0.17 | 2.26 ± 0.15 | 2.05 ± 0.14 | 4.86 ± 0.33 | 4.2 ± 0.29
22 | Cc1cccc(C)c1 [1,3-dimethylbenzene] + CCCC[n+]1ccc(C)cc1.O=S(=O)([N-]S(=O)(=O)C(F)(F)F)C(F)(F)F | 1.35 ± 0.09 | 1.38 ± 0.09 | 1.42 ± 0.09 | 1.45 ± 0.1 | 1.48 ± 0.1 | 1.51 ± 0.1 |  | 
23 | C1CCCCC1 [cyclohexane] + CCCC[n+]1ccc(C)cc1.O=S(=O)([N-]S(=O)(=O)C(F)(F)F)C(F)(F)F | 7.76 ± 0.53 | 7.31 ± 0.5 | 6.96 ± 0.47 | 6.54 ± 0.45 | 6.23 ± 0.42 | 5.94 ± 0.4 | 8.93 ± 0.61 | 8.34 ± 0.57
24 | CCCCO [butan-1-ol] + CCCC[n+]1ccc(C)cc1.O=S(=O)([N-]S(=O)(=O)C(F)(F)F)C(F)(F)F | 2.26 ± 0.15 | 2.05 ± 0.14 | 1.87 ± 0.13 | 1.71 ± 0.11 | 1.57 ± 0.1 | 1.46 ± 0.1 |  | 
25 | CCCCCCCCCC [decane] + CCCC[n+]1ccc(C)cc1.O=S(=O)([N-]S(=O)(=O)C(F)(F)F)C(F)(F)F | 45 ± 3.1 | 41.1 ± 2.8 | 37.6 ± 2.6 | 34.6 ± 2.4 | 31.9 ± 2.2 | 29.7 ± 2 | 54.7 ± 3.7 | 49.3 ± 3.4
26 | C1CCCCCCC1 [cyclooctane] + CCCC[n+]1ccc(C)cc1.O=S(=O)([N-]S(=O)(=O)C(F)(F)F)C(F)(F)F | 12 ± 0.8 | 11.2 ± 0.8 | 10.4 ± 0.7 | 9.81 ± 0.67 | 9.26 ± 0.63 | 8.74 ± 0.6 | 13.9 ± 1 | 12.9 ± 0.9
27 | C1CCCCCC1 [cycloheptane] + CCCC[n+]1ccc(C)cc1.O=S(=O)([N-]S(=O)(=O)C(F)(F)F)C(F)(F)F | 9.45 ± 0.64 | 8.9 ± 0.61 | 8.39 ± 0.57 | 7.9 ± 0.54 | 7.46 ± 0.51 | 7.14 ± 0.49 | 10.9 ± 0.7 | 10.1 ± 0.7
